This passage reports inhibition of growth and Activity results from ChEMBL document CHEMBL1154710, “Synthesis, anti-inflammatory and anticancer activity evaluation of some novel acridine derivatives” (2010).

Molecules are shown by their SMILES.

Holding throughout (type): functional
In one test the test system is PC-3. The test is described as follows: Growth inhibition of human PC3 cells at 10 uM after 48 hrs by SRB assay. The following applies: PC-3, 48 h, read-out: GI.
The test system of a further test is COLO 205. The test is described as follows: Growth inhibition of human COLO205 cells at 10 uM after 48 hrs by SRB assay. As to conditions: COLO 205, 48 h, read-out: GI. In general terms: Sulforhodamine B stains cellular protein and so reports cell mass.
The next test has as its system OVCAR-5. The test is described as follows: Growth inhibition of human OVCAR5 cells at 10 uM after 48 hrs by SRB assay. The following applies: OVCAR-5, 48 h, read-out: GI.
The test system of another test is HEp-2. The test is described as follows: Growth inhibition of human Hep2 cells at 10 uM after 48 hrs by SRB assay. As to conditions: HEp-2, 48 h, read-out: GI.
Another test deals with DU-145. The test is described as follows: Growth inhibition of human DU145 cells at 10 uM after 48 hrs by SRB assay. The following applies: DU-145, 48 h, read-out: GI.
For the next test, the system named is MCF7. The experiment in a line: Growth inhibition of human MCF7 cells at 10 uM after 48 hrs by SRB assay. As to conditions: MCF7, 48 h, read-out: GI.
The next test deals with Rattus norvegicus. The experiment in a line: Antiinflammatory activity in albino Charles-Foster rat assessed as inhibition of carrageenan-induced paw oedema at 50 mg/kg, po administered 30 mins before carrageenan challenge […] after 1-3 hrs relative to control. On the set-up: scale not given: the % may be the effect or the level left.
Test [1] in a line: Growth inhibition of human 502713 cells at 10 uM after 48 hrs by SRB assay. The following applies: Homo sapiens, 502713, 48 h; read-out: GI.
In a further test the test system is IMR-32. The experiment in a line: Growth inhibition of human IMR32 cells at 10 uM after 48 hrs by SRB assay. The following applies: IMR-32, 48 h, read-out: GI.
A further test concerns HCT-15. The experiment in a line: Growth inhibition of human HCT15 cells at 10 uM after 48 hrs by SRB assay. As to conditions: HCT-15, 48 h, read-out: GI.
The next test deals with A549. The test is described as follows: Growth inhibition of human A549 cells at 10 uM after 48 hrs by SRB assay. As to conditions: A549, 48 h, read-out: GI.

Take `COc1ccc2nc3ccccc3c(NCCc3c[nH]c4ccccc34)c2c1`: the inhibition of growth at 10 µM turned out to be 51% with PC-3; 0% in the test on COLO 205; 23% in the test on OVCAR-5; 9% in the test with HEp-2; 25% in the test on DU-145; 42% in the test with MCF7. Further, the Activity with Rattus norvegicus stood at 31.33%.
As for `Cc1cccc2c(NCCc3cccs3)c3ccccc3nc12`, the inhibition of growth at 10 µM with PC-3 was 52%; in the test with COLO 205 it was 79%; with OVCAR-5, 6%; in the test on HEp-2 it was 41%; in the test with DU-145, 41%; with MCF7, 73%. Further, in the test on Rattus norvegicus, the Activity is given as 33.09%.
As for `COc1ccc2nc3ccccc3c(NCC3CCCO3)c2c1` (racemic), the inhibition of growth at 10 µM was 37% in the test with PC-3; 61% with COLO 205; 41% in the test with OVCAR-5; 11% in the test with HEp-2; 9% in the test on DU-145; 42% in the test with MCF7. For the same compound, the Activity in the test with Rattus norvegicus was found to be 20.16%.
In the case of `Cc1cccc2c(NCC3CCCO3)c3ccccc3nc12` (racemic), the inhibition of growth at 10 µM worked out at 61% with PC-3; 46% in the test with COLO 205; 54% with OVCAR-5; 18% with HEp-2; 17% in the test on DU-145; 45% in the test on MCF7. In addition, the Activity with Rattus norvegicus is recorded as 34.02%.
Regarding `Cc1cccc2c(NCCc3c[nH]c4ccccc34)c3ccccc3nc12`, the inhibition of growth at 10 µM worked out at 53% in the test with PC-3; 69% in the test on COLO 205; 51% in the test with OVCAR-5; 23% in the test with HEp-2; 42% in the test with DU-145; 53% with MCF7. Moreover, the Activity in the test on Rattus norvegicus was found to be 31.03%.
In the case of `COc1cccc2c(NCCc3c[nH]c4ccccc34)c3ccccc3nc12`, the inhibition of growth at 10 µM in test [1] amounted to 63%; in the test with IMR-32 it was 99%; with HCT-15, 91%; in the test with COLO 205, 84%; with HEp-2, 75%; in the test with A549 it was 49%. Further, the inhibition of growth at 10 µM with MCF7 is 78%. For the same compound, the Activity in the test on Rattus norvegicus is given as 39.69%.
For `COc1ccc2nc3ccccc3c(NC(=S)NCc3ccco3)c2c1`, the inhibition of growth at 10 µM in test [1] was 45%; with IMR-32, 71%; with HCT-15, 61%; in the test with COLO 205, 23%; in the test on HEp-2, 26%; in the test with A549 it was 37%. Besides, the inhibition of growth at 10 µM in the test on MCF7 amounted to 35%. Also, the Activity in the test on Rattus norvegicus is 30.98%.
